Measurements as given in PMC12155096 (International Journal of Molecular Sciences, 2025).
Where a name gives a salt, the structure may show the parent alone. Read-outs that look alike come from different tables or passages of the source.

Legend:
human CYP2C19 = human CYP2C19 (Homo sapiens, UniProt P33261); experiment: biochemical
human CYP2C9 = human CYP2C9 (Homo sapiens, UniProt P11712); experiment: biochemical
human CYP2D6 = human CYP2D6 (Homo sapiens, UniProt P10635)
CYP3A4 = CYP3A4 (Homo sapiens, UniProt P08684); experiment: biochemical
CYP3A4, sequence (P08684 whole entry): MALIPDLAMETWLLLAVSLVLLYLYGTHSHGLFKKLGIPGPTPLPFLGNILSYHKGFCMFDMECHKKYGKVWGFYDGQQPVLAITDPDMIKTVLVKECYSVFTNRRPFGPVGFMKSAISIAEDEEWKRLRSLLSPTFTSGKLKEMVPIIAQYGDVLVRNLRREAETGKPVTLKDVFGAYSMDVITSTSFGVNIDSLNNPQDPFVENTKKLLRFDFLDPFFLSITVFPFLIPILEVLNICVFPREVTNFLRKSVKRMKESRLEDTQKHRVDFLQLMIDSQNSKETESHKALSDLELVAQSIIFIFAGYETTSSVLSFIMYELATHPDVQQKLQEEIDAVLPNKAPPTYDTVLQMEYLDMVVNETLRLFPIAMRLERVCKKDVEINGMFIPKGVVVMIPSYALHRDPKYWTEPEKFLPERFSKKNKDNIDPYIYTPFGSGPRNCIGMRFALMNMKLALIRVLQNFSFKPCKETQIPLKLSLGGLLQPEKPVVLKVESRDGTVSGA

human CYP1A2 = molecular target: T1, human CYP1A2 (Homo sapiens, UniProt P05177); experiment: biochemical
T1 sequence (P05177 1-516): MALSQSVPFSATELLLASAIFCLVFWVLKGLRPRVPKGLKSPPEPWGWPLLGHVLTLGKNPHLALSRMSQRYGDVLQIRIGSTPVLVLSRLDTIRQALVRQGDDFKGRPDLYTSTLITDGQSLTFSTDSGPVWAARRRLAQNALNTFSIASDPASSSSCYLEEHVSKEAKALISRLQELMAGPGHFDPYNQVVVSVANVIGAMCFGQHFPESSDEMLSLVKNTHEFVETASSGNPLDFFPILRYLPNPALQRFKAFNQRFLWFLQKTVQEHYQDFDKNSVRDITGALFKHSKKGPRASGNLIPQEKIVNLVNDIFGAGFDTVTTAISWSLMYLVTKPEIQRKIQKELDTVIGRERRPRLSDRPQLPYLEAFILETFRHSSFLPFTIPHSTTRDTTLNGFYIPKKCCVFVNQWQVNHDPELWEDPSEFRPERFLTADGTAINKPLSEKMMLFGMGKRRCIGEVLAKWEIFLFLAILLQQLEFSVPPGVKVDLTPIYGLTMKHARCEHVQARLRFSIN

[1] = CYP2C19 AC50 (half-maximal activity concentration)
[2] = CYP2C9 AC50 (half-maximal activity concentration)
[3] = CYP3A4 AC50 (half-maximal activity concentration)
[4] = CYP1A2 AC50 (half-maximal activity concentration)

human CYP2C9, sequence (P11712 whole entry): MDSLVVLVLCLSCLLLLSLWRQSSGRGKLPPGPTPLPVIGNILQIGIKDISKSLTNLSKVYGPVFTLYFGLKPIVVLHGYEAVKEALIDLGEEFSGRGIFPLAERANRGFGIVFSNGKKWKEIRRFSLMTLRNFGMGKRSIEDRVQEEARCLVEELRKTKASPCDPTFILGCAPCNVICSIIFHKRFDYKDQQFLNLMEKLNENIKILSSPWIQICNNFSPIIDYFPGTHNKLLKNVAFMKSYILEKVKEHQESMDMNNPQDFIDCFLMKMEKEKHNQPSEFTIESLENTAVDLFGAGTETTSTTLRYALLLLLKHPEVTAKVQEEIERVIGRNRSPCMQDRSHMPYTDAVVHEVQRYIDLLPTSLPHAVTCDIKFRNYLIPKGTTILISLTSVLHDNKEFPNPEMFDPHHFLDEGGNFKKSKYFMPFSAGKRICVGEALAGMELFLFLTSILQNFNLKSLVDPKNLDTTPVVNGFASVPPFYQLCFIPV
human CYP2C19, sequence (P33261 whole entry): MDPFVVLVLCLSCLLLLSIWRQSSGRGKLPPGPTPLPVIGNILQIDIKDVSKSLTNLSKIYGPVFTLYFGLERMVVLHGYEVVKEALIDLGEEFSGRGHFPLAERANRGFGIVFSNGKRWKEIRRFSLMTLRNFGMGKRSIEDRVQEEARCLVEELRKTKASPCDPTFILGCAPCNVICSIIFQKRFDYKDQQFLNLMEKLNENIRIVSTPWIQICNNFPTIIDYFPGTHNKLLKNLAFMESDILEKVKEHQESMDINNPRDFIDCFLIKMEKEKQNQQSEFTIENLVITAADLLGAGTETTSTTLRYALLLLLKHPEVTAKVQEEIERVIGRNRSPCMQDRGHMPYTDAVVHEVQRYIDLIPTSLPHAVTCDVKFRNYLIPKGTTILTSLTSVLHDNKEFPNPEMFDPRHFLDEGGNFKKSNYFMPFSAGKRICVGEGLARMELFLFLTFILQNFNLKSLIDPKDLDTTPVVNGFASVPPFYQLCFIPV
human CYP2D6, sequence (P10635 whole entry): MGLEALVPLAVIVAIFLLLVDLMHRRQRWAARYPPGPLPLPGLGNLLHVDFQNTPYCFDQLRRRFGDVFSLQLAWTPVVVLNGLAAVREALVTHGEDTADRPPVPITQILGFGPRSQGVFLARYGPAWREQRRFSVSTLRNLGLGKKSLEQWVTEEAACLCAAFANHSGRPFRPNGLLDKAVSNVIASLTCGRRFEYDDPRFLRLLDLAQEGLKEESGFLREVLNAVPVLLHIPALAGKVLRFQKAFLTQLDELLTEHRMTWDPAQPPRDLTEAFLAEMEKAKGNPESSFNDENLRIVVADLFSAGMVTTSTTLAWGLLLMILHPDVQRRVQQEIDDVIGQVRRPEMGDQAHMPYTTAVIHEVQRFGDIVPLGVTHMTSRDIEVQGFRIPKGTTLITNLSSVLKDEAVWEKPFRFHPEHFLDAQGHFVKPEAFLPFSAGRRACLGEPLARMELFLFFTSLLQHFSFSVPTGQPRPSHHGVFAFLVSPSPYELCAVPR

| AC50 (human CYP2C19) | AC50 (human CYP2C9) | AC50 (CYP3A4) | AC50 (human CYP1A2) | Structure (SMILES) | AC50 (human CYP2C19; [1]) | AC50 (human CYP2C9; [2]) | CYP2D6 AC50 (half-maximal activity concentration) (human CYP2D6) | AC50 (CYP3A4; [3]) | AC50 (human CYP1A2; [4]) |
| --- | --- | --- | --- | --- | --- | --- | --- | --- | --- |
| – | – | – | – | O=[N+]([O-])c1cc(C(F)(F)F)cc([N+](=O)[O-])c1Cl | 56.7 µM | 18 µM | Inconclusive inhibitor | 49.2 µM | 64.7 µM |
| – | – | – | – | N#Cc1cc(I)c(O)c(I)c1 [Ioxynil] | 83.2 µM | 22.4 µM | Inactive | 38.5 µM | 46.2 µM |
| – | – | – | – | CCOC(=O)NC(C)(C)Cc1ccc(Cl)cc1 [Cloforex] | 5.34 µM | 15.6 µM | Inconclusive inhibitor | 14.6 µM | 7.64 µM |
| – | – | – | – | O=P(Oc1ccccc1)(Oc1ccccc1)Oc1ccccc1 [Triphenyl phosphate] | 6.53 µM | 6.87 µM | Inactive | 6.42 µM | 10.8 µM |
| – | – | – | – | O=C(/C=C/c1ccccc1)OCc1ccccc1 [Benzyl cinnamate] | 13.6 µM | 12.4 µM | Inactive | 21.5 µM | 7.8 µM |
| – | – | – | – | C[Si](Cl)(c1ccccc1)c1ccccc1 [Chloro(methyl)diphenylsilane] | 2.26 µM | 3.53 µM | Inconclusive inhibitor | 23.4 µM | 32.2 µM |
| – | – | – | – | O=C(NC(=O)c1c(F)cccc1F)Nc1cc(Cl)c(OC(F)(F)C(F)C(F)(F)F)cc1Cl (stereo not drawn) [Lufenuron] | 10.9 µM | 11.3 µM | Inactive | 7.45 µM | 35.7 µM |
| – | – | – | – | CSc1nc(NC(C)C)nc(NC(C)C)n1 [Prometryn] | 71 µM | 58.2 µM | Inactive | 29.1 µM | 17.3 µM |
| – | – | – | – | CC(C)N(Cc1ccccc1)C(=O)C(C)(C)C [Butam] | 15.1 µM | 34.3 µM | Inactive | 9.61 µM | 32.6 µM |
| – | – | – | – | c1ccc(-c2ccccc2-c2ccccc2)cc1 [o-Terphenyl] | 15.9 µM | 26.5 µM | Inactive | 24.7 µM | 2.91 µM |
| – | – | – | – | CCCCCCC(C=O)=Cc1ccccc1 [2-Benzylideneoctanal] | 25.6 µM | 31.1 µM | Inactive | 7.81 µM | 13.8 µM |
| – | – | – | – | CCOC(=O)C(C)Oc1ccc(Oc2nc3ccc(Cl)cc3o2)cc1 (stereo not drawn) [Fenoxaprop-ethyl] | 53 µM | 44 µM | Inconclusive inhibitor | 28.4 µM | 23.9 µM |
| – | – | – | – | O=[N+]([O-])c1ccccc1-c1ccccc1 [2-Nitro-1,1'-biphenyl] | 30.4 µM | 22.6 µM | Inactive | 34.3 µM | 1.66 µM |
| – | – | – | – | Nc1cc(Cl)cc(Cl)c1 [3,5-Dichloroaniline] | 17.7 µM | 74.5 µM | Inactive | 43.2 µM | 30.7 µM |
| – | – | – | – | O=C(NC(=O)c1c(F)cccc1F)Nc1cc(Cl)c(F)c(Cl)c1F [Teflubenzuron] | 69.2 µM | 46.5 µM | Inactive | 57.7 µM | 32.5 µM |
| – | – | – | – | CCCCCC1C(=O)CCC1CC(=O)OC (stereo not drawn) [Methyl dihydrojasmonate] | 2.53 µM | 28.4 µM | Inconclusive inhibitor | 8.73 µM | 27.2 µM |
| – | – | – | – | CC(C)OC(=O)c1ccccc1C(=O)OC(C)C [Diisopropyl phthalate] | 53.2 µM | 50.4 µM | Inconclusive inhibitor | 31.9 µM | 3.31 µM |
| 13.5 µM | 30.6 µM | 7.51 µM | 17.1 µM | O=C(OCCc1ccccc1)c1ccccc1 [2-Phenylethyl benzoate] | – | – | Inconclusive inhibitor | – | – |
| – | – | – | – | O=C(OCCOCCOC(=O)c1ccccc1)c1ccccc1 [Diethylene glycol dibenzoate] | 34.1 µM | 12.7 µM | Inactive | 11.4 µM | 8.29 µM |
| 25.5 µM | 41.5 µM | 27.5 µM | 16.5 µM | CCOC(=O)Cc1cccc2ccccc12 [Ethyl 1-naphthaleneacetate] | – | – | Inactive | – | – |

| AC50 (human CYP2C19) | AC50 (human CYP2C9) | AC50 (CYP3A4) | AC50 (human CYP1A2) | Structure (SMILES) | AC50 (human CYP2C19; [1]) | AC50 (human CYP2C9; [2]) | CYP2D6 AC50 (half-maximal activity concentration) (human CYP2D6) | AC50 (CYP3A4; [3]) | AC50 (human CYP1A2; [4]) |
| --- | --- | --- | --- | --- | --- | --- | --- | --- | --- |
| – | – | – | – | CCCOC(=O)c1ccccc1C(=O)OCCC [Dipropyl phthalate] | 7.01 µM | 30 µM | Inactive | 9.91 µM | 2.38 µM |
| 57.6 µM | 16.1 µM | 15.4 µM | 41.7 µM | CCCCOC(=O)CCCCC(=O)OCCCC [Dibutyl hexanedioate] | – | – | Inactive | – | – |
| 5.97 µM | 7.68 µM | 31.9 µM | 11.3 µM | CCCOC(=O)c1ccc(C(=O)OCCC)nc1 [Dipropyl 2,5-pyridinedicarboxylate] | – | – | Inactive | – | – |
| – | – | – | – | BrC(Br)C(Br)(Br)Br [Pentabromoethane] | 48.6 µM | 22.7 µM | Inconclusive inhibitor | 16.1 µM | 33.2 µM |
| 30.5 ± 10 µM | 35.6 µM | 2.69 ± 0.56 µM | 35.7 ± 4.11 µM | CCCCOC(=O)COc1ccc(Cl)cc1Cl [2,4-D 1-butyl ester] | – | – | Inactive | – | – |
| 20.8 µM | 31.9 µM | 47.4 µM | 7.68 µM | CCOC(=O)COC(=O)c1ccccc1C(=O)OCC [Ethyl phthalyl ethyl glycolate] | – | – | Inactive | – | – |
| – | – | – | – | Brc1ccc(Oc2ccc(Br)cc2)cc1 [4,4'-Dibromodiphenyl ether] | 3.02 µM | 24.6 µM | Inactive | 28.4 µM | 18.8 µM |
| – | – | – | – | Clc1nc(Cl)c(Cl)c(Cl)c1Cl [Pentachloropyridine] | 61.1 µM | 62.4 µM | Inactive | 8.61 µM | 41.8 µM |
| – | – | – | – | O=[N+]([O-])c1cccc2ccccc12 [1-Nitronaphthalene] | 59.8 µM | 31.2 µM | Inactive | 15.6 µM | 2.96 µM |
| – | – | – | – | O=C(c1ccc(Cl)cc1)c1ccc(Cl)cc1 [4,4'-Dichlorobenzophenone] | 1.67 µM | 6.1 µM | Inactive | 11 µM | 2.34 µM |
| – | – | – | – | O=C(C=Cc1ccccc1)OCC=Cc1ccccc1 [3-Phenyl-2-propen-1-yl 3-phenylacrylate] | 31.8 µM | 29.4 µM | Inactive | 24.9 µM | 25.3 µM |
| 14.7 µM | 50 µM | 35.6 µM | 3.84 µM | O=C(c1ccccc1)c1ccc(Cl)cc1 [4-Chlorobenzophenone] | – | – | Inconclusive inhibitor | – | – |
| – | – | – | – | O=[N+]([O-])C(Br)(CO)CO [Bronopol] | 5.81 µM | 4.61 µM | Inactive | 5.19 µM | 14.2 µM |
| – | – | – | – | N#CCCC(Br)(C#N)CBr (stereo not drawn) [1,2-Dibromo-2,4-dicyanobutane] | 11.5 µM | 8.43 µM | Inconclusive inhibitor | 9.92 µM | 14.6 µM |
| 52.3 µM | 30.6 µM | 62.6 µM | 68.4 µM | CCCCCCCCOS(=O)(=O)O [Sodium octyl sulfate] | – | – | Inactive | – | – |
| – | – | – | – | COC(=O)CCCCCCCCC(=O)OC [Dimethyl decanedioate] | 64.5 µM | 50.5 µM | Inactive | 38.8 µM | 40.1 µM |
| – | – | – | – | O=CC(Br)(Br)Br [Tribromoacetaldehyde] | 53.3 µM | 18.4 µM | Inconclusive inhibitor | 10.2 µM | 29.6 µM |
| – | – | – | – | IC(I)=C(I)I [Tetraiodoethene] | 9.09 µM | 3.57 µM | Inactive | 19.5 µM | 13 µM |
| – | – | – | – | COC(=O)C(C)Oc1ccc(Oc2ccc(Cl)cc2Cl)cc1 (stereo not drawn) [Diclofop-methyl] | 6.41 µM | 27.5 µM | Inconclusive | 12.8 µM | 38.5 µM |
